# Data as given in patent publication US7951905B2, “Synthesis of carbohydrate-templated amino acids and methods of using same” (University of Manitoba, priority 2006, dated 2011).
# What was measured:
# [1] = Trans/cis ratio (Kt/c) of prolyl amide isomers by 500 MHz NMR; assay type: physicochemical
# Procedure: For each of 11-13, the ratio of trans/cis isomers was calculated by integrating as many well-resolved peaks as possible for each isomer, and taking the average of over all peaks for respective isomers (Taylor et al., 2003). The assignment of N-terminal amide geometry for both major and minor isomers of 11-16 was based on multiple GOESY experiments (Stronehouse et al., 1994).
# Experiments were undertaken to determine the Kt/c effect of certain fused bicyclic sugar-proline-containing peptides. A very similar profile of Kt/c for the Ac-Gly-GlcPro-NHMe model compounds 14-16 compared to the Ac-GlcPro-NHMe model compounds 11-13 (Table 1) was observed. In CD3OD, there was an increase in the cis-content as the sugar substituent changed from benzyl 14 (<3%), to hydroxyl 15 (15%), to acetate 16 (25%).
# [2] = D2O; n.s. = not soluble (footnote b)
compound,measurement,setting,value
"CNC(=O)[C@@H]1C[C@H]2O[C@H](COCc3ccccc3)[C@H](OCc3ccccc3)[C@@H](OCc3ccccc3)[C@H]2N1C(=O)CNC(C)=O [Compound 14, N-Acetyl-glycyl-(2S,3aR,5R,6R,7S,7aS)-6,7-di-O-benzyl-octahydro-5-(phenylmethyl hydroxymethyl)-pyrano[3,2-b]pyrrole-2-carboxamide N′-methylamide]",% cis isomer,"[1]; CD3OD, 500 MHz NMR at 25° C.",< 3%
same,Trans/cis ratio (Kt/c),"[1]; CD3OD, 500 MHz NMR at 25° C.",> 30
same,% cis isomer,"[1]; CDCl3, 500 MHz NMR at 25° C.",5%
same,Trans/cis ratio (Kt/c),"[1]; CDCl3, 500 MHz NMR at 25° C.",19
same,solubility in solvent,[2],n.s.^[b]
"CNC(=O)[C@@H]1C[C@H]2O[C@H](CO)[C@H](O)[C@@H](O)[C@@H]2N1C(=O)CNC(C)=O [Compound 15, N-Acetyl-glycyl-(2S,3aR,5R,6R,7S,7aS)-6,7-dihydroxy-5-(hydroxymethyl)-octahydro-pyrano[3,2-b]pyrrole-2-carboxamide N′-methylamide]",% cis isomer,"[1]; CD3OD, 500 MHz NMR at 25° C.",15%
same,Trans/cis ratio (Kt/c),"[1]; CD3OD, 500 MHz NMR at 25° C.",5.7
same,% cis isomer,"[1]; D2O, 500 MHz NMR at 25° C.",10%
same,Trans/cis ratio (Kt/c),"[1]; D2O, 500 MHz NMR at 25° C.",9
"CNC(=O)[C@@H]1C[C@H]2O[C@H](COC(C)=O)[C@H](OC(C)=O)[C@@H](OC(C)=O)[C@H]2N1C(=O)CNC(C)=O [Compound 16, N-Acetyl-glycyl-(2S,3aR,5R,6R,7S,7aS)-6,7-di-O-acetyl-5-(hydroxymethyl-O-acetyl)-octahydro-pyrano[3,2-b]pyrrole-2-carboxamide N′-methylamide]",% cis isomer,"[1]; CD3OD, 500 MHz NMR at 25° C.",25%
same,Trans/cis ratio (Kt/c),"[1]; CD3OD, 500 MHz NMR at 25° C.",3
same,% cis isomer,"[1]; CDCl3, 500 MHz NMR at 25° C.",20%
same,Trans/cis ratio (Kt/c),"[1]; CDCl3, 500 MHz NMR at 25° C.",4
